Assay [1] concerns the target T1, human CB1 receptor (Homo sapiens, UniProt P21554).
T1 construct: expressed in transfected cells; host or cells: SK-N-MC cells, stably transfected with pcDNA3 CB-1 (human); semi-purified membrane pellet
The experiment in a line: Functional cell-based assay, CB1 receptor mediated change in CRE β-gal expression (agonist / inverse agonist). The source says:
(§1) Functional Cell-Based Assay for CB1 or CB2 Agonist and Inverse Agonist Effects on Intra-Cellular Adenylate Cyclase Activity
(§2) The CB1 and CB2 receptors are G-protein coupled receptors (GPCR) which influence cell function via the Gi-protein. These receptors modulate the activity of intracellular adenylate cyclase which in turn produces the intracellular signal messenger cyclic-AMP (cAMP).
(§3) At baseline, or during non-ligand bound conditions, these receptors are constitutively active and tonically suppress adenylate cyclase activity. The binding of an agonists causes further receptor activation and produces additional suppression of adenylate cyclase activity. The binding of an inverse agonist inhibits the constitutive activity of the receptors and results in an increase in adenylate cyclase activity.
(§4) By monitoring intracellular adenylate cyclase activity, the ability of compounds to act as agonists or inverse agonists can be determined.
(§5) Test compounds were evaluated in SK-N-MC cells which, using standard transfection procedures, were stably transfected with human cDNA for pcDNA3-CRE β-gal and pcDNA3 CB1 receptor (human) or pcDNA3 CB2 receptor (human). By expressing CRE β-gal, the cells produced β-galactosidase in response to CRE promoter activation by cAMP. Cells expressing CRE β-gal and either the human CB1 or CB2 receptor will produce less β-galactosidase when treated with a CB1/CB2 agonist and will produce more β-galactosidase when treated with a CB1/CB2 inverse agonist.
(§6) The cells were grown in 96-well plates under standard cell culture conditions at 37° C. in a 5% CO2 atmosphere. After 3 days, the media was removed and a test compound in media (wherein the media was supplemented with 2 mM L-glutamine, […] sodium pyruvate, 0.1% low fatty acid FBS (fetal bovine serum) and antibiotics) was added to the cell. The plates were incubated for 30 minutes at 37° C. and the plate cells were then treated with forskolin over a 4-6 hour period, then washed and lysed. The β-galactosidase activity was quantitated using commercially available kit reagents (Promega Corp. Madison, Wis.) and a VMAX Plate Reader (Molecular Devices, Inc).
(§7) The change in β-galactosidase activity was determined by setting a vehicle treated cell's activity value at 100% and expressing the β-galactosidase activity measured in a corresponding compound treated cell as a percent of the vehicle treated cell activity.
(§8) The EC50 values for compounds tested were calculated by linear regression and were obtained from studies in which varying compound concentrations were used.

Assay [2] deals with T1, human CB1 receptor. The experiment in a line: biochemical. Type of assay: binding. The gist of the method:
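Membranes from SK-N-MC cells stably expressing human CB1, incubated 90 minutes at 30° C in Tris-HCl buffer with MgCl2, EDTA and fatty acid free BSA, pH 7.5. Bound counts collected by filtration and scintillation counting; IC50 from linear regression over varying compound concentrations.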

Assay [3] addresses T2, human CB2 receptor (Homo sapiens, UniProt P34972). The experiment in a line: Functional cell-based assay, CB2 receptor mediated change in CRE β-gal expression (agonist / inverse agonist). The note with it: SK-N-MC cells, forskolin.
Source text: as §1, §2, §3, §4, §5, §6
For cells expressing CRE β-gal and the CB2 receptor, CB2 agonists reduced β-galactosidase activity in a dose-dependent manner and CB2 inverse agonists increased β-galactosidase activity in a dose-dependent manner.
as §7, §8

In assay [4] the target is T2, human CB2 receptor. Put plainly: Binding assay, cannabinoid CB2 receptor ([3H]-CP-55,940 displacement). The settings on record: Cannabinoid CB2 Receptor Binding IC50, human CB2 receptor, SK-N-MC cell membranes, radioligand CP-55,940 0.2 nM. The gist of the method: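 Membranes from SK-N-MC cells stably expressing human CB2, incubated with test compound and 0.2 nM [3H]-CP-55,940 for 90 min at 30 °C in Tris buffer pH 7.5 with fatty-acid-free BSA. Nonspecific binding defined with 10 uM WIN 55,212; filtration and scintillation counting, IC50 by linear regression.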

Where [5] appears, read: agonist, read-out: CB2 Receptor Functional Agonist EC50.
Where [6] appears, read: inverse agonist, read-out: CB2 Receptor Functional Inverse Agonist EC50.

Molecules are shown by their SMILES. pEC50, pIC50: −log10 of the molar value. Like-named read-outs stand apart in the source and are kept apart here.

T1 sequence (P21554 whole entry): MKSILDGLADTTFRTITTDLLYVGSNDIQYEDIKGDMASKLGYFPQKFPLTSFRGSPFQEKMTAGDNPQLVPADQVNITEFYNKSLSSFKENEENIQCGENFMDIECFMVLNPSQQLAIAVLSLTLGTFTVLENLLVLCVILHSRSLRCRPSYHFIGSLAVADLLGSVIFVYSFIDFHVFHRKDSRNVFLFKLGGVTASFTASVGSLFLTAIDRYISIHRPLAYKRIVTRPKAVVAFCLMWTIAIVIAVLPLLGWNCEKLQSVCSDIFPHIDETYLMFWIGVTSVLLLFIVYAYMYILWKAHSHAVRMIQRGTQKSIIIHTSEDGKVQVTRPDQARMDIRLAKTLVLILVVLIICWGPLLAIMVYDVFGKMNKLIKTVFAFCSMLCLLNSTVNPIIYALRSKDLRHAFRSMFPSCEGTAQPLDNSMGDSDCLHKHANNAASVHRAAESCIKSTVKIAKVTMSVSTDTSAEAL
T2 sequence (P34972 whole entry): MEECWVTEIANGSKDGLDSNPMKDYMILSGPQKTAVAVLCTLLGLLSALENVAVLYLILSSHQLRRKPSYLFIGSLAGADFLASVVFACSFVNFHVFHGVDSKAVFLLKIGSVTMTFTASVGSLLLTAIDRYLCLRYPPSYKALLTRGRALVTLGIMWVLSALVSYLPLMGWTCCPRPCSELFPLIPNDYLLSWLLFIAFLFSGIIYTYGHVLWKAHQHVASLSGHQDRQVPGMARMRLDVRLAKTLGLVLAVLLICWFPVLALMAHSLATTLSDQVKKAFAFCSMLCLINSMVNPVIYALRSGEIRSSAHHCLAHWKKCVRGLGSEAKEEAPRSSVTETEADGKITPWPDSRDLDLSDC

Regarding `CC(NS(=O)(=O)C=Cc1nn(-c2ccc(F)cc2)c2c1CCCC2CCc1ccccc1)C1CCCCC1` (stereo not shown) [Cpd 259, 2-[1-(4-fluoro-phenyl)-7-phenethyl-4,5,6,7-tetrahydro-1H-indazol-3-yl]-ethenesulfonic acid (1-cyclohexyl-ethyl)-amide], the pEC50 on human CB1 receptor [1] (SK-N-MC cells, CRE β-gal, human CB1 receptor, forskolin, inverse agonist, read-out: CB1 Receptor Functional Inverse Agonist EC50) was 6.21.

The compound `C[C@@H](NC(=O)c1nn(-c2ccc(Cl)cc2Cl)c2c1CCC/C2=C\c1ccc(Cl)cc1)c1ccccc1` [compound 307] showed a pEC50 on human CB1 receptor [1] of 7.00.

Compound `CC(NC(=O)c1nn(-c2ccc(Cl)cc2Cl)c2c1CCC/C2=C\c1ccc(Cl)cc1)c1ccccn1` (stereo not shown) [compound 320] gave a pIC50 on human CB1 receptor [2] of 7.85. Further, the pEC50 on human CB1 receptor [1] is 9.00.

Compound `C[C@H](NC(=O)c1nn(-c2ccc(Cl)cc2Cl)c2c1CCCC2=Cc1ccc(F)cc1)C1CCCCC1` [compound 309] had a pIC50 on human CB1 receptor [2] of 7.33. The pEC50 on human CB1 receptor [1] is 7.09.

In turn, `O=C(NN1CCOCC1)c1nn(-c2ccc(Cl)cc2Cl)c2c1CCC/C2=C\c1ccc(F)cc1` [compound 298] showed a pIC50 against human CB1 receptor [2] of 7.19. This compound also gave a pEC50 at human CB1 receptor [1] of 8.40.

For the compound `COC(=O)C(Cc1ccc(O)cc1)NC(=O)c1nn(Cc2ccccc2)c2c1CCCC2` (stereo not shown) [compound 75], the pIC50 was 7.63 on human CB1 receptor [2] and 9.15 on human CB2 receptor [4]. In addition, the pEC50 on human CB2 receptor [3] (setting [5]) is 10.00.

As to `CCOC(=O)[C@H]1C2CCC(C2)[C@H]1NC(=O)c1nn(-c2ccc(F)cc2)c2c1CCCC2CCc1ccccc1` (stereo partly shown) [compound 154], the pIC50 was 7.22 against human CB1 receptor [2] and 6.43 at human CB2 receptor [4]. On human CB2 receptor [3] (setting [5]), the negative logarithm of the EC50 (pEC50) was 8.05.

Consider `O=C(NCC12CC3CC(CC(C3)C1)C2)c1nn(C2CCCCC2)c2c1CCCC2` [compound 32], for which the pIC50 on human CB1 receptor [2] was 7.70; on human CB2 receptor [4] it was 8.16. Further, the pEC50 at human CB2 receptor [3] (setting [5]) was 7.33.

Regarding `COC(=O)[C@@H]1CCc2c(c(C(=O)NC3C4CC5CC(C4)CC3C5)nn2C2CCCCC2)C1` (stereo partly shown) [compound 219], the pIC50 against human CB1 receptor [2] was 7.00; on human CB2 receptor [4] it was 8.40. Also, the pEC50 on human CB2 receptor [3] (setting [6]) is 6.49.

With `CC12CCC(C1)C(C)(C)C2NC(=O)c1nn(-c2ccccc2)c2c1CCCC2` (stereo not shown) [compound 1], the negative logarithm of the IC50 (pIC50) against human CB1 receptor [2] was 6.42; at human CB2 receptor [4], 7.87. Also, the pEC50 at human CB2 receptor [3] (setting [5]) was 7.82.

On to `CCOC(=O)[C@H]1CCc2c(c(C(=O)NC3C4CC5CC(C4)CC3C5)nn2C2CCCCC2)C1` (stereo partly drawn) [Cpd 208, (5S)-3-(adamantan-2-ylcarbamoyl)-1-cyclohexyl-4,5,6,7-tetrahydro-1H-indazole-5-carboxylic acid ethyl ester], for which the pIC50 is 6.18 against human CB1 receptor [2] and 7.85 at human CB2 receptor [4]. Besides, the pEC50 at human CB2 receptor [3] (setting [6]) was 8.07.

On to `CC12CCC(C1)C(C)(C)C2NC(=O)c1nn(-c2ccc(F)cc2)c2c1CCCC2` (stereo not shown) [compound 10], for which the pIC50 was 7.35 against human CB1 receptor [2] and 8.22 on human CB2 receptor [4]. The pEC50 on human CB2 receptor [3] (setting [5]) is 8.72.

`CCOC(=O)C1CCc2c(c(C(=O)NC3C4(C)CCC(C4)C3(C)C)nn2Cc2ccccc2)C1` (stereo not shown) [compound 149]: the pIC50 is 7.17 against human CB1 receptor [2] and 8.10 at human CB2 receptor [4]. Moreover, the pEC50 on human CB2 receptor [3] (setting [6]) is 8.10.

On human CB1 receptor [1], `COc1cccc(C2CCCc3c(C(=O)N[C@H](CCl)c4ccccc4)nn(-c4ccc(Cl)cc4Cl)c32)c1` (stereo partly drawn) [Cpd 316, 1-(2,4-dichloro-phenyl)-7-(3-methoxy-phenyl)-4,5,6,7-tetrahydro-1H-indazole-3-carboxylic acid [(1S)-2-chloro-1-phenyl-ethyl]-amide] gave a pEC50 of 7.34.

For `O=C(NN1CCCCCC1)c1nn(C2CCCCC2)c2c1CCCC2` [compound 37], the pIC50 against human CB1 receptor [2] was 7.16; at human CB2 receptor [4], 6.95. On human CB2 receptor [3] (setting [5]), the pEC50 is 8.00.

Regarding `O=C(NN1CCCCC1)c1nn(-c2ccc(Cl)cc2Cl)c2c1CCCC2=Cc1ccc(F)cc1` [Cpd 297, 1-(2,4-dichloro-phenyl)-7-(4-fluoro-benzylidene)-4,5,6,7-tetrahydro-1H-indazole-3-carboxylic acid piperidin-1-ylamide], the pIC50 against human CB1 receptor [2] is 7.89. For the same compound, the pEC50 on human CB1 receptor [1] is 8.30.

Take `O=C(NC1C2CC3CC(C2)CC1C3)c1nn(C2CCCCC2)c2c1CCCC2Cl` (stereo not shown) [compound 62]: the pIC50 is 6.55 against human CB1 receptor [2] and 8.30 on human CB2 receptor [4]. In addition, on human CB2 receptor [3] (setting [5]), the pEC50 was 9.24.

As for `COC(=O)[C@H]1CCc2c(c(C(=O)NC3C4CC5CC(C4)CC3C5)nn2C2CCCCC2)C1` (stereo partly shown) [compound 218], the results for the pIC50 at human CB1 receptor [2] and at human CB2 receptor [4] were 6.40 and 8.52, respectively. Further, the pEC50 on human CB2 receptor [3] (setting [6]) is 8.22.

Take `COc1cccc(C2CCCc3c(C(=O)N[C@H](C)c4ccccc4)nn(-c4ccc(Cl)cc4Cl)c32)c1` (stereo partly shown) [compound 312]: the pEC50 at human CB1 receptor [1] was 7.44.

With `O=C(NC1C2CC3CC(C2)CC1C3)c1nn(CC2CCCCC2)c2c1CCCC2` (stereo not shown) [compound 122], the pIC50 against human CB1 receptor [2] is 8.40; on human CB2 receptor [4], 8.82. Besides, the pEC50 at human CB2 receptor [3] (setting [5]) is 7.43.

As for `O=C(NC1C2CCC(C2)C1CO)c1nn(C2CCCCC2)c2c1CCCC2` (stereo not shown) [compound 40], the figures for the pIC50 on human CB1 receptor [2] and at human CB2 receptor [4] were 5.84 and 6.67, respectively. Further, the pEC50 at human CB2 receptor [3] (setting [5]) is 7.51.

Turning to `CC12CCC(C1)C(C)(C)[C@@H]2NC(=O)c1nn(Cc2ccccc2)c2c1CCCC2` (stereo partly shown) [compound 217], the results for the pIC50 against human CB1 receptor [2] and at human CB2 receptor [4] were 8.59 and 10.00, respectively. In addition, the pEC50 at human CB2 receptor [3] (setting [5]) was 10.28.

As for `O=C(NN1CCCCCC1)c1nn(-c2ccc(F)cc2)c2c1CCCC2` [compound 35], the negative logarithm of the IC50 (pIC50) is 6.15 at human CB1 receptor [2] and 7.03 at human CB2 receptor [4]. Moreover, the pEC50 at human CB2 receptor [3] (setting [5]) is 7.46.

With `CC12CCC(C1)C(C)(C)C2NC(=O)c1nn(-c2cccc(F)c2)c2c1CCCC2` (stereo not shown) [compound 18], the figures for the negative-log IC50 (pIC50) against human CB1 receptor [2] and on human CB2 receptor [4] were 7.04 and 8.44, respectively. In addition, the pEC50 at human CB2 receptor [3] (setting [5]) was 8.57.

Consider `CC12CCC(C1)C(C)(C)[C@H]2NC(=O)c1nn(C2CCCCC2)c2c1CCCC2` (stereo partly shown) [compound 207], for which the pIC50 is 7.08 on human CB1 receptor [2] and 8.80 at human CB2 receptor [4]. Further, on human CB2 receptor [3] (setting [5]), the pEC50 is 8.00.

At human CB1 receptor [1], `CCOC(=O)C1CCc2nn(-c3ccccc3)c(C(=O)NC34CC5CC(CC(C5)C3)C4)c2C1` (stereo not shown) [compound 91] showed a negative logarithm of the EC50 (pEC50) of 5.47.

With `CC(NC(=O)c1nn(-c2ccc(F)cc2)c2c1CCCC2c1ccccc1)C12CC3CC(CC(C3)C1)C2` (stereo not shown) [compound 146], the pEC50 at human CB1 receptor [1] was 5.82.

Consider `CCOC(=O)C1CCc2c(C(=O)NC34CC5CC(CC3C5)C4)nn(Cc3ccccc3)c2C1` (stereo not shown) [compound 157], for which the values for the pIC50 at human CB1 receptor [2] and on human CB2 receptor [4] were 7.52 and 8.70, respectively. The pEC50 on human CB2 receptor [3] (setting [6]) is 8.82.

In the case of `O=C(NCc1ccccn1)c1nn(-c2ccc(Cl)cc2Cl)c2c1CCCC2=Cc1ccc(Cl)cc1` [compound 319], on human CB1 receptor [1], the pEC50 was 7.30.

The compound `CC(NS(=O)(=O)C=Cc1nn(-c2ccc(F)cc2)c2c1CCCC2CCc1ccccc1)c1ccccc1` (stereo not shown) [Cpd 258, 2-[1-(4-fluoro-phenyl)-7-phenethyl-4,5,6,7-tetrahydro-1H-indazol-3-yl]-ethenesulfonic acid (1-phenyl-ethyl)-amide] gave a pEC50 at human CB1 receptor [1] of 6.32.

For the compound `CCOC(=O)[C@@H]1CCc2c(c(C(=O)NC3C4CC5CC(C4)CC3C5)nn2C2CCCCC2)C1` (stereo partly drawn) [Cpd 209, (5R)-3-(adamantan-2-ylcarbamoyl)-1-cyclohexyl-4,5,6,7-tetrahydro-1H-indazole-5-carboxylic acid ethyl ester], the pIC50 at human CB1 receptor [2] was 6.59; at human CB2 receptor [4] it was 6.70. On human CB2 receptor [3] (setting [6]), the negative logarithm of the EC50 (pEC50) is 7.13.

For `C[C@@H](NC(=O)c1nn(C2CCCCC2)c2c1CCCC2)C12CC3CC(CC(C3)C1)C2` [compound 212], the pIC50 at human CB1 receptor [2] is 6.59; on human CB2 receptor [4], 7.13. Also, the pEC50 on human CB2 receptor [3] (setting [5]) was 8.43.

The values are drawn from patent US7452997B2 (priority 2004, dated 2008).
